Converted amounts (≈) assume the structure as drawn.

The subject of one experiment is Trichoderma. Nature of the experiment: Antimicrobial activity against Trichoderma sp. by poison food technique. The experiment is classed as functional.
Another experiment concerns Bacillus subtilis. The experiment in a line: Antimicrobial activity against Bacillus subtilis by well diffusion method. The experiment is classed as functional.
The subject of another experiment is Escherichia coli. The experiment in a line: Antimicrobial activity against Escherichia coli by well diffusion method. It is filed as functional.
The next experiment concerns Salmonella typhi. The experiment in a line: Antimicrobial activity against Salmonella typhi by well diffusion method. It is filed as functional, Salmonella enterica subsp. enterica serovar Typhi. As to conditions: Salmonella enterica.
Another experiment has as its system Shigella sp. Nature of the experiment: Antimicrobial activity against Shigella sp. by well diffusion method. The experiment is classed as functional. Background: Agar diffusion results depend on both activity and mobility in agar.
The next experiment deals with Staphylococcus aureus. The experiment in a line: Antimicrobial activity against Staphylococcus aureus by well diffusion method. It is filed as functional.
In a further experiment the test system is Aspergillus sp. The experiment in a line: Antimicrobial activity against Aspergillus sp. by poison food technique. It is filed as functional.
The test system of the next experiment is Streptococcus pneumoniae. The experiment in a line: Antimicrobial activity against Streptococcus pneumoniae by well diffusion method. The experiment is classed as functional.
The subject of the next experiment is Candida albicans. Nature of the experiment: Antimicrobial activity against Candida albicans by poison food technique. The experiment is classed as functional.

On to `CN1C[C@H](C(=O)c2ccc(Cl)cc2)[C@H]2c3ccccc3OC[C@H]21`, for which the minimum inhibitory concentration (MIC) (in general, the smallest concentration in the dilution series that meets the test's criterion for growth inhibition) was determined as 40 µg/mL (≈ 122 µM) against Trichoderma; 15 µg/mL (≈ 45.8 µM) with Bacillus subtilis; 10 µg/mL (≈ 30.5 µM) with Escherichia coli; 10 µg/mL (≈ 30.5 µM) in the experiment with Salmonella typhi; 25 µg/mL (≈ 76.3 µM) against Shigella sp.; 20 µg/mL (≈ 61 µM) in the experiment with Staphylococcus aureus. Besides, the MIC against Aspergillus sp. is 35 µg/mL (≈ 107 µM); against Streptococcus pneumoniae it was 25 µg/mL (≈ 76.3 µM); against Candida albicans, 45 µg/mL (≈ 137 µM).
For `O=C(c1ccc(Cl)cc1)[C@@H]1[C@H]2c3ccccc3OC[C@H]2N2CCC[C@H]12`, the MIC is 30 µg/mL (≈ 84.8 µM) with Trichoderma; 5 µg/mL (≈ 14.1 µM) against Bacillus subtilis; 10 µg/mL (≈ 28.3 µM) in the experiment with Escherichia coli; 15 µg/mL (≈ 42.4 µM) against Salmonella typhi; 5 µg/mL (≈ 14.1 µM) with Shigella sp.; 5 µg/mL (≈ 14.1 µM) in the experiment on Staphylococcus aureus. Besides, the minimum inhibitory concentration (MIC) with Aspergillus sp. is 25 µg/mL (≈ 70.7 µM); in the experiment on Streptococcus pneumoniae, 10 µg/mL (≈ 28.3 µM); in the experiment on Candida albicans it was 25 µg/mL (≈ 70.7 µM).
In the case of `O=C(c1ccc(Cl)cc1)[C@@H]1[C@H]2c3ccccc3OC[C@H]2N2CSC[C@H]12`, the minimum inhibitory concentration (MIC) against Trichoderma worked out at 75 µg/mL (≈ 202 µM); against Bacillus subtilis, 20 µg/mL (≈ 53.8 µM); in the experiment with Escherichia coli, 15 µg/mL (≈ 40.3 µM); against Salmonella typhi it was 25 µg/mL (≈ 67.2 µM); in the experiment with Shigella sp., 30 µg/mL (≈ 80.7 µM); in the experiment with Staphylococcus aureus, 25 µg/mL (≈ 67.2 µM). Also, the minimal inhibitory concentration (MIC) in the experiment on Aspergillus sp. stood at 70 µg/mL (≈ 188 µM); against Streptococcus pneumoniae, 30 µg/mL (≈ 80.7 µM); in the experiment on Candida albicans, 65 µg/mL (≈ 175 µM).
In the case of `O=C(c1ccc(Cl)cc1)[C@@H]1[C@H]2c3ccccc3OC[C@H]2N2Cc3ccccc3C[C@H]12`, the minimum inhibitory concentration (MIC) against Trichoderma was 45 µg/mL (≈ 108 µM); with Bacillus subtilis, 5 µg/mL (≈ 12 µM); with Escherichia coli, 10 µg/mL (≈ 24 µM); in the experiment with Salmonella typhi, 15 µg/mL (≈ 36.1 µM); against Shigella sp., 20 µg/mL (≈ 48.1 µM); against Staphylococcus aureus it was 5 µg/mL (≈ 12 µM). In addition, the MIC against Aspergillus sp. stood at 25 µg/mL (≈ 60.1 µM); against Streptococcus pneumoniae it was 15 µg/mL (≈ 36.1 µM); in the experiment on Candida albicans it was 20 µg/mL (≈ 48.1 µM).
Take `CN1C[C@@]2(CCc3ccccc3C2=O)[C@H]2c3ccccc3OC[C@H]21`: the minimum inhibitory concentration (MIC) with Trichoderma was 105 µg/mL (≈ 329 µM); with Bacillus subtilis, 35 µg/mL (≈ 110 µM); with Escherichia coli it was 25 µg/mL (≈ 78.3 µM); against Salmonella typhi, 55 µg/mL (≈ 172 µM); in the experiment with Shigella sp., 45 µg/mL (≈ 141 µM); in the experiment with Staphylococcus aureus it was 20 µg/mL (≈ 62.6 µM). For the same compound, the MIC in the experiment with Aspergillus sp. is 85 µg/mL (≈ 266 µM); in the experiment on Streptococcus pneumoniae, 60 µg/mL (≈ 188 µM); in the experiment on Candida albicans it was 75 µg/mL (≈ 235 µM).
Turning to `O=C1c2ccccc2CC[C@]12[C@H]1c3ccccc3OC[C@H]1N1CCC[C@@H]12`, the minimal inhibitory concentration (MIC) is 110 µg/mL (≈ 318 µM) with Trichoderma; 70 µg/mL (≈ 203 µM) with Bacillus subtilis; 50 µg/mL (≈ 145 µM) with Escherichia coli; 60 µg/mL (≈ 174 µM) with Salmonella typhi; 75 µg/mL (≈ 217 µM) against Shigella sp.; 65 µg/mL (≈ 188 µM) in the experiment on Staphylococcus aureus. Also, the MIC came to 75 µg/mL (≈ 217 µM) in the experiment on Aspergillus sp., 55 µg/mL (≈ 159 µM) in the experiment with Streptococcus pneumoniae and 95 µg/mL (≈ 275 µM) against Candida albicans.
As for `O=C1c2ccccc2CC[C@]12[C@H]1c3ccccc3OC[C@H]1N1CSC[C@@H]12`, the MIC in the experiment on Trichoderma amounted to 105 µg/mL (≈ 289 µM); in the experiment with Bacillus subtilis, 55 µg/mL (≈ 151 µM); against Escherichia coli it was 65 µg/mL (≈ 179 µM); in the experiment on Salmonella typhi it was 60 µg/mL (≈ 165 µM); with Shigella sp. it was 70 µg/mL (≈ 193 µM); in the experiment on Staphylococcus aureus it was 45 µg/mL (≈ 124 µM). Further, the MIC came out at 75 µg/mL (≈ 206 µM) against Aspergillus sp., 40 µg/mL (≈ 110 µM) in the experiment on Streptococcus pneumoniae and 90 µg/mL (≈ 248 µM) in the experiment with Candida albicans.
As for `O=C1c2ccccc2CC[C@]12[C@H]1c3ccccc3OC[C@H]1N1Cc3ccccc3C[C@@H]12`, the MIC came to 50 µg/mL (≈ 123 µM) with Trichoderma; 5 µg/mL (≈ 12.3 µM) in the experiment with Bacillus subtilis; 5 µg/mL (≈ 12.3 µM) in the experiment with Escherichia coli; 5 µg/mL (≈ 12.3 µM) against Salmonella typhi; 5 µg/mL (≈ 12.3 µM) in the experiment with Shigella sp.; 5 µg/mL (≈ 12.3 µM) in the experiment on Staphylococcus aureus. Further, the values for the MIC with Aspergillus sp., in the experiment on Streptococcus pneumoniae and against Candida albicans were 25 µg/mL (≈ 61.3 µM), 10 µg/mL (≈ 24.5 µM) and 35 µg/mL (≈ 85.9 µM), respectively.
`COC(=O)Nc1nc2ccccc2[nH]1` [CARBENDAZIM]: the MIC against Trichoderma was 15 µg/mL (≈ 78.5 µM); against Aspergillus sp. it was 15 µg/mL (≈ 78.5 µM); against Candida albicans, 10 µg/mL (≈ 52.3 µM).
For `CN(C)[C@@H]1C(O)=C(C(N)=O)C(=O)[C@@]2(O)C(O)=C3C(=O)c4c(O)cccc4[C@@](C)(O)[C@H]3C[C@@H]12` [TETRACYCLINE], the minimal inhibitory concentration (MIC) is 10 µg/mL (≈ 22.5 µM) in the experiment on Bacillus subtilis; 10 µg/mL (≈ 22.5 µM) with Escherichia coli; 25 µg/mL (≈ 56.3 µM) in the experiment on Salmonella typhi; 15 µg/mL (≈ 33.8 µM) with Shigella sp.; 15 µg/mL (≈ 33.8 µM) in the experiment on Staphylococcus aureus; 20 µg/mL (≈ 45 µM) against Streptococcus pneumoniae.

(Values after ChEMBL document CHEMBL1287775, “Stereoselective synthesis of hexahydro-3-methyl-1-arylchromeno[3,4-b]pyrrole and its annulated heterocycles as potent antimicrobial agents for human pathogens” (2010).)
